# Source: patent publication US12059397B2 (METIMEDI PHARMACEUTICALS CO., LTD., priority 2016, dated 2024)
# What was measured:
# [1] = tested on: cancer cell lines; settings: cited from earlier work
# [2] = tested on: cancer cells; settings: in vivo; cited from earlier work
# [3] = tested on: Human colorectal cancer cells; test: In vivo efficacy of long-acting formulation, flank xenograft; set-up: species or system Balb/c nude mice; settings: 2 mg/kg subcutaneously B.I.D. for 21 days; FIG. 8
# Protocol: Human colorectal cancer cells (5×10^6) were transplanted to the flank of Balb/c nude mice. […] Group 2: […] Group 3: […] Group 4: […] Tumor volume was measured 3 times per week until the end of experiment and was recorded by calculating minimum (M) and maximum (L) linear size of the tumors (L×M^2/2). Tumor weight was measured after autopsy on the final day of experiment. Tumor mass was sectioned to 5 μm and then stained with hematoxylin and eosin for histological analysis.
# [4] = tested on: cancer cells; settings: cited from earlier work
# [5] = tested on: HCT116 cells; test: In vivo liver metastasis after intra-splenic injection; set-up: species or system Mice; settings: subcutaneous injection twice a day for 3 weeks; FIG. 11
# Protocol: Cells were maintained in RPMI-1640 medium (Welgene, Daegu, South Korea) supplemented with 10% fetal bovine serum (Welgene, Daegu, South Korea), 100 IU/ml penicillin, and 100 μg/ml streptomycin (Welgene, Daegu, South Korea) in a humidified atmosphere of 5% CO2, at 37° C. Calcium lactate (CaLa) was purchased from Sigma-Aldrich (St Louis, MO, USA).
# Mice were anesthetized with a 2% isoflurane. 5×10^6 of HCT116 cells were suspended in the 100 μL phosphate buffered saline for one injection. A small left abdominal flank incision was made and the spleen was exteriorized for the intra-splenic injection. The prepared cells were injected into the spleen with a 30-gauge needle. To prevent tumor cell leakage and bleeding, a cotton swab was held over the site of injection for 1 min. The injected spleen was returned to the abdomen and the wound was sutured with 6-0 black silk.
# [6] = Stability of calcium lactate in water and acidic conditions; type: physicochemical
# Text: However, the drug is very unstable in water, especially under acidic conditions, and rapidly degraded. Therefore, it is difficult for this drug to show pharmaceutical efficacy with a general oral formulation because it is readily decomposed in the acidic environment of the stomach upon oral administration. Calcium lactate is also not absorbed when it reaches the large intestines because it is destroyed by enzymes present in the large intestine.
structure (smiles),measurement,setting,value
CC(O)C(=O)[O-].CC(O)C(=O)[O-].[Ca+2] (stereo not shown) [calcium lactate],anticancer effect in combination with conventional radiation,[1]; decreased amount of radiation,equivalent anticancer effect
same,anticancer effect in combination with well-known anticancer drugs,[1]; decreased concentration of the anticancer drugs,higher anticancer effect
same,growth of cancer cells in animal models,[2],suppressed
same,tumor size versus control group,[3],clearly smaller than the control group
same,"levels of growth, metastasis (migration) and tube formation of the cancer cells",[4],decreased
same,"levels of lactate, LDH-B, pyruvate, PDH and α-KG in cells",[4],increased
same,"levels of β-catenin, PARP, HIF-1α and VEGF in cells",[4],decreased
same,inflammatory response in developed tumor,[5],induced
same,liver metastasis as compared to the control,[5],suppressed
same,"stability in water, especially under acidic conditions",[6],very unstable
